Test results: US6667317B2, “Pharmaceutical combinations for the treatment of stroke and traumatic brain injury” (Pfizer Inc, priority 2000, dated 2003)

Key:
α1 adrenergic receptor = assay: Displacement of specific binding of [3H]prazosin from rat forebrain membranes; conditions: 0.2 nM [3H]prazosin, affinity defined as IC50 for displacement of specific binding
Protocol: Compounds of the formula I have selectivity for NR^2B subunit-containing NMDA receptors over α1-adrengergic receptors. Affinity for the NR^2B subunit containing NMDA receptor is measured as the IC50 for displacement of specific binding of racemic [^3H] (+)-(1S, 2S)-1-(4-hydroxy-phenyl)-2-(4-hydroxy4-phenylpiperidino)-1-propanol from rat forebrain membranes (described above). Affinity for the α1-adrengergic receptor is defined as the IC50 for displacement of specific binding of racemic [^3H]prazosin from rat brain membranes, measured as described by Greengrass and Bremner (Binding Characteristics of [^3H]prazosin to Rat Brain α-Adrenergic Receptors, European Journal of Pharmacology, 55, 323-326, (1979)).
Forebrains of adult male Sprague Dawley rats are homogenized in 20 volumes of ice cold 50 mM Tris/HCl buffer (pH 7.7). The homogenate is centrifuged at 50,000×g for 10 minutes at 4° C. The pellet is resuspended and centrifuged under identical conditions and the final pellet is resuspended in 80 volumes of 50 mM Tris/HCl (pH 8.0) at 4° C.
For binding assays, compounds under study are added at various concentrations to 500 μg membrane protein in 1 ml of 50 mM Tris/HCl buffer, followed by [^3H]prazosin (Amersham, specific activity 33 Ci/mmol, 0.2 nM final concentration). Following incubation for 30 min at 25° C. in a shaking water bath, samples are filtered onto Whatman GFB glass fiber filters using a MB-48R Cell Harvester (Brandel Research and Development Laboratories, Gaithersburg Md.). Filters are washed three times for 10s with ice cold Tris HCl buffer and the radioactivity trapped on the filter quantified by liquid scintillation spectroscopy. Nonspecific binding is determined in parallel incubations containing 100 nM prazosin. Specific binding is defined as total binding minus nonspecific binding.

[1] = target: T1, NR2B subunit containing NMDA receptor (Rattus norvegicus, UniProt P35439+Q00960); assay: Displacement of specific binding of racemic [3H](+)-(1S,2S)-1-(4-hydroxy-phenyl)-2-(4-hydroxy-4-phenylpiperidino)-1-propanol ([3H]CP-101,606) from rat forebrain membranes; conditions: ratio of the two binding IC50s; selectivity for NR2B NMDA receptor over α1 adrenergic receptor; greater than three is considered selective
T1 construct: (+)-(1S, 2S)-1-(4-hydroxy-phenyl)-2-(4-hydroxy4-phenylpiperidino)-1-propanol from rat forebrain membranes; from tissue; host or cells: forebrain membranes of adult male CD rats
T1 sequence (Q00960 27-1482, other chains not shown): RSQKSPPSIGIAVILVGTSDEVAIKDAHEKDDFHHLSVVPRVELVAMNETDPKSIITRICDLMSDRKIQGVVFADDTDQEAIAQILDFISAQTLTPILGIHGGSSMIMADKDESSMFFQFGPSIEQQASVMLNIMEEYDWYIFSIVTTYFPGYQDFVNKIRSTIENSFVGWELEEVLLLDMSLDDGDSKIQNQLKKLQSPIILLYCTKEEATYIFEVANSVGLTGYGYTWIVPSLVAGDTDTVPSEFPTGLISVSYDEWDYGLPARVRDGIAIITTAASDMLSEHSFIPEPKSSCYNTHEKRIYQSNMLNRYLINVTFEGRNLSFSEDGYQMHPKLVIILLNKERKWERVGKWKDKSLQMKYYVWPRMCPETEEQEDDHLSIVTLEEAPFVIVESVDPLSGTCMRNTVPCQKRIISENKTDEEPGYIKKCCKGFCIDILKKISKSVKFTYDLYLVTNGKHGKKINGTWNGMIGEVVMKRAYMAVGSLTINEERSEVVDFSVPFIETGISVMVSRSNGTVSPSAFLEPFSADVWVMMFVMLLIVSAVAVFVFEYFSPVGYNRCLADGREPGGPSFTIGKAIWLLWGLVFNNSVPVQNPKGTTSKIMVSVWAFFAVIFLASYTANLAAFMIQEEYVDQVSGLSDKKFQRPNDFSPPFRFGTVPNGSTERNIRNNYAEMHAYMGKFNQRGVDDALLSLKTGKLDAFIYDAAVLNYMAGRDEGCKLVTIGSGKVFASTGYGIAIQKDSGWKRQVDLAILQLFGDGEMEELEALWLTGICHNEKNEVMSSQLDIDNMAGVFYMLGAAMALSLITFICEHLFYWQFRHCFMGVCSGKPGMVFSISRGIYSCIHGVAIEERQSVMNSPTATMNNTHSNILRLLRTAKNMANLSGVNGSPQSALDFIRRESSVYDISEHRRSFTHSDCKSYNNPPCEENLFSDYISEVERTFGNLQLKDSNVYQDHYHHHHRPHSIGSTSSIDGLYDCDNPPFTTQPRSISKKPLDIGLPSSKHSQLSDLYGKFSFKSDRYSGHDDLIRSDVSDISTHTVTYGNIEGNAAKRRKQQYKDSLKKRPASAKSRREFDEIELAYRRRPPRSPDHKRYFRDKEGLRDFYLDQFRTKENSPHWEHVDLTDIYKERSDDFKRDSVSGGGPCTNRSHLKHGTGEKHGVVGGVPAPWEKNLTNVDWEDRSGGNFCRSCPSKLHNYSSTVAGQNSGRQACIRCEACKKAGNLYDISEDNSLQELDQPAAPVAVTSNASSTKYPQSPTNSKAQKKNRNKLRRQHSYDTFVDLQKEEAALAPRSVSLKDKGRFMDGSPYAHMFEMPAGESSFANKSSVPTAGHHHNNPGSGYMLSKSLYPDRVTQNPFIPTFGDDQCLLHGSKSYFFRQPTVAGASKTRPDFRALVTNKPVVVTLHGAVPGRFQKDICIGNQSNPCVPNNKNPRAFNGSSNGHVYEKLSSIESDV
Protocol: This affinity is assessed in a radioligand binding assay as described below.
The binding of racemic [^3H] […] Forebrains of adult male CD rats are homogenized in 0.32M sucrose at 4° C. The crude nuclear pellet is removed by centrifugation at 1,000×g for 10 minutes, and the supernatant centrifuged at 17,000×g for 25 minutes. The resulting pellet is resuspended in 5 mM Tris acetate pH 7.4 at 4° C. for 10 minutes to lyse cellular particles and again centrifuged at 17,000×g. The resulting pellet is washed twice in Tris acetate, resuspended at 10 mg protein/ml and stored at −20° C. until use.
For binding assays, membranes are thawed, homogenized, and diluted to 0.5 mg protein/ml with 50 mM Tris HCl, pH 7.4. Compounds under study are added at various concentrations followed by racemic [^3H] […] Following incubation for 20 min at 30° C. in a shaking water bath, samples are filtered onto Whatman GFB glass fiber filters using a MB-48R Cell Harvester (Brandel Research and Development Laboratories, Gaithersburg Md.). Filters are washed for 10 s with ice cold Tris HCl buffer and the radioactivity trapped on the filter quantified by liquid scintillation spectroscopy. […] Specific binding is defined as total binding minus nonspecific binding.
Affinity for the NR^2B subunit containing NMDA receptor is measured as the IC50 for displacement of specific binding of racemic [^3H] […] Affinity for the α1-adrengergic receptor is defined as the IC50 for displacement of specific binding of racemic [^3H]prazosin from rat brain membranes, measured as described by Greengrass and Bremner (Binding Characteristics of [^3H]prazosin to Rat Brain α-Adrenergic Receptors, European Journal of Pharmacology, 55, 323-326, (1979)).

Row | melting point [°C] | SMILES | IC50 (α1 adrenergic receptor) [µM] | Ratio [^3H]Prazosin/[^3H](+)-(1S, 2S)-1-(4-hydroxy-phenyl)-2-(4-hydroxy-4-phenylpiperidino)-1-propanol [1]
1 |  | COc1cc([C@H](O)[C@H](C)N2CCC(O)(c3ccccc3)CC2)ccc1O [1S, 2S 1-(4-hydroxy-3-methoxyphenyl)-2-(4-hydroxy-4-phenyl-piperidin-1-yl)-propan-1-ol] | 8.1 | 86
2 |  | C[C@@H]([C@@H](O)c1ccc(O)cc1)N1CCC(O)(c2ccccc2)CC1 [(1S,2S)-1-(4-hydroxyphenyl)-2-(4-hydroxy-4-phenylpiperidino)-1-propanol] | 19.5 | 
3 |  | Cc1cc([C@@H](O)[C@@H](C)N2CCC(O)(c3ccc(F)cc3)CC2)ccc1O (relative stereo) [(1R*, 2R*)-1-(4-hydroxy-3-methylphenyl)-2-(4-(4-fluorophenyl)-4-hydroxypiperidin-1-yl)-propan-1-ol-mesylate] | 10 | 
4 | 159 to 160 | Oc1ccc2c(c1)OCC(N1CCC(O)(c3ccc(F)cc3)CC1)[C@H]2O (stereo in doubt) |  | 
5 |  | OC(CN1CCC(Cc2ccc(F)cc2)CC1)c1ccc(Cl)cc1 (stereo not drawn) [Eliprodil, reference compound] | 0.98 ± 0.22 | 2.2
6 |  | Oc1ccc2c(c1)OC[C@@H](N1CCC(O)(c3ccc(F)cc3)CC1)[C@H]2O [(3R,4S)-3-[4-(4-fluorophenyl)-4-hydroxy-piperidin-1-yl]-chroman-4,7-diol] | > 10 | ≧555
